Results from US20240302376A1, “METHOD FOR IDENTIFYING SUBGROUPS OF CIRCULATING TUMOR CELLS (CTCS) IN THE CTC POPULATION OF A BIOLOGICAL SAMPLE” (priority 2012, published 2024).

What was measured:
[1] = tested on: Pt-(GpG) adducts in DNA of CTC and CD45-positive cells; assay: Pt-(GpG) DNA adducts in CD45/CD15-depleted mononuclear cell fraction exposed to cisplatin ex vivo; assay type: cell-based, human; settings: after exposure to cisplatin, NSCLC patient blood
Description: Pt-(GpG) intrastrand crosslinks are the major DNA adducts induced by platinum-based anticancer drugs. […] Pt-(GpG) DNA adducts in CTCs treated with cisplatin in medium upfront to systemic therapy from patients with advanced non-small-cell lung cancer (NSCLC) was studied.
Blood was drawn before systemic treatment and the CD45/CD15-depleted fraction of mononuclear cells was exposed to cisplatin, verified for the presence of CTC by pan-cytokeratin (pCK) staining and immunoanalysed for the level of Pt-(GpG) in DNA. Pt-(GpG) adducts can be detected in CTC from NSCLC patients and assessing their kinetics constitutes a clinically feasible biomarker for response prediction and dose individualisation of platinum-based chemotherapy.
Epithelial CTCs were detected that stained positive for DAPI and pCK and negative for CD45. The ratio of pCK− positive to CD45-positive cells in the depleted fractions was in the range of […], resulting in up to three CTC per cell spot on the slides. […]
The measurement of Pt-(GpG) adducts in the nuclear DNA of short term-exposed CTC depict a characteristic time course of formation and removal. […] The degree of association was calculated between these three values of ex vivo adduct persistence in CTC from 11 patients with their therapeutic response using the Spearman's rho rank correlation coefficient. […]

[2] = tested on: Pt-(GpG) in the DNA of CTC; assay: Pt-(GpG) adduct levels in CTC after cisplatin infusion versus ex vivo exposure; set-up: species or system human; settings: clinical dose 50 mgm_2 (1.4 mg kg_1 body weight); blood at baseline and 2, 4 and 24 h after infusion; same patient
Description: To test whether adduct kinetics measured in tumour cells after ex vivo exposure to cisplatin mirror the formation and repair rates for Pt-(GpG) in the DNA of those cells in vivo during systemic treatment, blood samples from the same patient were analysed under both the conditions.

N.N.[Cl][Pt][Cl] [cisplatin]
levels of DNA platination in CD45-positive cells as compared with CTC (fold lower) [1]: ~10 fold | CTC adduct levels after clinical dose versus ex vivo exposure [2]: comparable to a short time ex vivo exposure with 20 mgml_1 for 2 h
